Assay results taken from patent US7465743B2, “Pyrazolo[3,4-b]pyridine compounds, and their use as PDE4 inhibitors” (Glaxo Group Limited, priority 2004, dated 2008).

How the values were obtained:
[1] = molecular target: T1, PDE4B (human recombinant) (Homo sapiens, UniProt Q07343); assay: Inhibition of PDE4B activity (radioactive SPA assay or IMAP FP assay); format: biochemical; conditions: specific Examples; for Selectivity (PDE4B/PDE5 EMR ratio, not log scale): ratio PDE4B vs PDE5, not log scale; for IC50: one reading or average of ca. 2-6 readings, read-out: PDE4B pIC50 (± about 0.5) (converted)
T1 construct: made in house
T1 sequence (Q07343 1-564 isoform Q07343-2): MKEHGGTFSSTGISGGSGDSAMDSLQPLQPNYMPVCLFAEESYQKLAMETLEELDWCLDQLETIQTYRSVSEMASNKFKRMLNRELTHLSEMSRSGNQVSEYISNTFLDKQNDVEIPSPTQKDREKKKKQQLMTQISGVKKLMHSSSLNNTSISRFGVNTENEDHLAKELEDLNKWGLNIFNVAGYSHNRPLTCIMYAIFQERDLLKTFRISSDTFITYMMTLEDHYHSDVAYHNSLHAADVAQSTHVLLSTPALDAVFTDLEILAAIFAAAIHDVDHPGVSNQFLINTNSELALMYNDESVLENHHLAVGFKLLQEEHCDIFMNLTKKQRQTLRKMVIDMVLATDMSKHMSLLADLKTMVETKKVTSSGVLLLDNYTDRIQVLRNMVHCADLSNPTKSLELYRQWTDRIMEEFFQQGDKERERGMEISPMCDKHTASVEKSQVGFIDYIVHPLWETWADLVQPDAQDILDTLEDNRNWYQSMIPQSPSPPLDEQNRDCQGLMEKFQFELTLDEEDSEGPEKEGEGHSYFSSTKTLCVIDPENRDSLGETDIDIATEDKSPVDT
Source text: Human recombinant PDE4B, in particular the 2B splice variant thereof (HSPDE4B2B), is disclosed in WO 94/20079 and also M. M. McLaughlin et al., “A low Km, rolipram-sensitive, cAMP-specific phosphodiesterase from human brain: cloning and expression of cDNA, biochemical characterisation of recombinant protein, and tissue distribution of mRNA”, J. Biol. Chem., 1993, 268, 6470-6476. For example, in Example 1 of WO 94/20079, human recombinant PDE4B is described as being expressed in the PDE-deficient yeast Saccharomyces cerevisiae strain GL62, e.g. after induction by addition of 150 uM CuSO4, and 100,000×g supernatant fractions of yeast cell lysates are described for use in the harvesting of PDE4B enzyme.
(§1) Inhibition of PDE 3, PDE 4B, PDE 4D, PDE 5 or PDE 6 Activity: Radioactive Scintillation Proximity Assay (SPA)
(§2) The ability of compounds to inhibit catalytic activity at PDE4B or 4D (human recombinant), PDE3 (from bovine aorta), PDE5 (human recombinant) or PDE6 (from bovine retina) is determined by Scintillation Proximity Assay (SPA) in 96-well format. Test compounds (as a solution in DMSO, preferably about 2 microliter (ul) volume of DMSO solution) are preincubated at ambient temperature (room temperature, e.g. 19-23° C.) in Wallac Isoplates (code 1450-514) with PDE enzyme in 50 mM Tris-HCl buffer pH 7.5, 8.3 mM MgCl2, 1.7 mM EGTA, 0.05% (w/v) bovine serum albumin for 10-30 minutes (usually 30 minutes). The enzyme concentration is adjusted so that no more than 20% hydrolysis of the substrate defined below occurs in control wells without compound, during the incubation. For the PDE3, PDE4B and PDE4D assays, [5′,8-^3H]Adenosine 3′,5′-cyclic phosphate (Amersham Pharmacia Biotech, code TRK.559; or Amersham Biosciences UK Ltd, Pollards Wood, Chalfont St Giles, Buckinghamshire HP8 4SP, UK) is added to give 0.05 uCi per well and ˜10 nM final concentration. For the PDE5 and PDE6 assays, [8-^3H]Guanosine 3′,5′-cyclic phosphate (Amersham Pharmacia Biotech, code TRK.392) is added to give 0.05 uCi per well and ˜36 nM final concentration. Plates containing assay mixture, preferably approx. 100 ul volume of assay mixture, are mixed on an orbital shaker for 5 minutes and incubated at ambient temperature for 1 hour. Phosphodiesterase SPA beads (Amersham Pharmacia Biotech, code RPNQ 0150) are added (˜1 mg per well) to terminate the assay. Plates are sealed and shaken and allowed to stand at ambient temperature for 35 minutes to 1 hour (preferably 35 minutes) to allow the beads to settle. Bound radioactive product is measured using a WALLAC TRILUX 1450 Microbeta scintillation counter. For inhibition curves, 10 concentrations (1.5 nM-30 uM) of each compound are assayed. Curves are analysed using ActivityBase and XLfit (ID Business Solutions Limited, 2 Ocean Court, Surrey Research Park, Guildford, Surrey GU2 7QB, United Kingdom) Results are expressed as pIC50 values.
Inhibition of PDE4B or PDE4D Activity: Fluorescence Polarisation (FP) Assay
The ability of compounds to inhibit catalytic activity at PDE4B (human recombinant) or PDE4D (human recombinant) is determined by IMAP Fluorescence Polarisation (FP) assay (IMAP Explorer kit, available from Molecular Devices Corporation, Sunnydale, Calif., USA; Molecular Devices code: R8062) in 384-well format. The IMAP FP assay is able to measure PDE activity in an homogenous, non-radioactive assay format. The FP assay uses the ability of immobilised trivalent metal cations, coated onto nanoparticles (tiny beads), to bind the phosphate group of Fl-AMP that is produced on the hydrolysis of fluorescein-labelled (Fl) cyclic adenosine mono-phosphate (Fl-cAMP) to the non-cyclic Fl-AMP form. […] Binding of Fl-AMP product to the beads (coated with the immobilised trivalent cations) slows the rotation of the bound Fl-AMP and leads to an increase in the fluorescence polarisation ratio of parallel to perpendicular light. Inhibition of the PDE reduces/inhibits this signal increase. […]

[2] = molecular target: PDE5 (human recombinant) (Homo sapiens, UniProt O76074); assay: Inhibition of PDE5 activity (radioactive SPA assay); format: biochemical; conditions: specific Examples; one reading or average of ca. 2-6 readings; read-out: PDE5 pIC50 (± about 0.5) (converted)
Source text: Human recombinant PDE5 is disclosed in K. Loughney et al., “Isolation and characterisation of cDNAs encoding PDE5A, a human cGMP-binding, cGMP-specific 3′,5′-cyclic nucleotide phosphodiesterase”, Gene, 1998, 216, 139-147.
as §1, §2
Biological Data obtained for some of the Examples (PDE4B and/or PDE5 inhibitory activity, either as one reading or as an average of ca. 2-6 readings) are as follows, based on current measurements only. In each of the SPA and FP assays, absolute accuracy of measurement is not possible, and the readings given are accurate only up to about ±0.5 of a log unit, depending on the number of readings made and averaged: […]

[3] = system: LPS-induced pulmonary neutrophilia; assay: In Vivo Assay 4: LPS-induced pulmonary neutrophilia in the conscious ferret; parameters: species or system ferret (Mustela Pulorius Furo); conditions: p.o.
Method: (§3) In Vivo Assay 4. Evaluation of Therapeutic Index of Orally-administered PDE 4 inhibitors in the conscious ferret
(§4) PDE4 inhibitors are prepared for oral (p.o.) administration by dissolving in a fixed volume (1 ml) of acetone and then adding cremophor to 20% of the final volume. Acetone is evaporated by directing a flow of nitrogen gas onto the solution. Once the acetone is removed, the solution is made up to final volume with distilled water. LPS is dissolved in phosphate buffered saline.
Male ferrets (Mustela Pulorius Furo, weighing 1-2 kg) are transported and allowed to acclimatise for not less than 7 days. The diet comprises SDS diet C pelleted food given ad lib with Whiskers™ cat food given 3 times per week. […]
(§5) PDE4 inhibitors are administered orally (p.o.), using a dose volume of 1 ml/kg. […] The animals are constantly observed and any emetic episodes (retching and vomiting) or behavioural changes are recorded. […]
(§6) Thirty minutes after oral dosing with compound or vehicle control, the ferrets are placed into sealed perspex containers and exposed to an aerosol of LPS (30 μg/ml) for 10 minutes. […] All emetic episodes and behavioural changes are recorded.
Six hours after LPS exposure the animals are killed by overdose of sodium pentobarbitone administered intraperitoneally. […] From this, the total number of neutrophils in the BAL sample is determined. […]

[4] = system: conscious ferret (emesis); assay: In Vivo Assay 4: emetic episodes in the conscious ferret after oral PDE4 inhibitor; therapeutic index; parameters: species or system ferret (Mustela Pulorius Furo); conditions: p.o.
Method: as §3, §4
Male ferrets (Mustela Pulorius Furo, weighing 1-2 kg) are transported and allowed to acclimatise for not less than 7 days. […]
as §5, §6
b) Emetic episodes—the number of vomits and retches are counted to determine the dose of PDE4 inhibitor that gives a 20% incidence of emesis (D20).
c) A therapeutic index (TI), using this assay, is then calculated for each PDE4 inhibitor using the following equation: […]

CCCCNC(=O)c1cnc2c(cnn2CC)c1NCCCC [4-butylamino-1-ethyl-pyrazolo[3,4-b]pyridine-5-(N-butyl)carboxamide, reference compound] was tested, and the “Selectivity (PDE4B/PDE5 EMR ratio, not log scale)” value [1] was 2, the IC50 [1] was 158 nM and the IC50 [2] was 398 nM.

For CCC(C)Nc1c(C(=O)Nc2ccccc2)cnc2c1cnn2C(C)C (stereo not drawn) [Comparative Example 61, reference compound], the “Selectivity (PDE4B/PDE5 EMR ratio, not log scale)” value [1] was 21, the IC50 [1] was 200 nM and the IC50 [2] was 5010 nM.

In the case of CCn1ncc2c(N[C@H](C)C(C)C)c(C(=O)NCc3ccccc3)cnc21 [Example 1, N-Benzyl-4-{[(1R)-1,2-dimethylpropyl]amino}-1-ethyl-1H-pyrazolo[3,4-b]pyridine-5-carboxamide], the “Selectivity (PDE4B/PDE5 EMR ratio, not log scale)” value [1] is reported as 66, the IC50 [1] is reported as 15.8 nM and the IC50 [2] is reported as 1000 nM.

CCn1ncc2c(N[C@H](C)C(C)C)c(C(=O)Nc3ccc(F)cc3)cnc21 [Example 2, 4-{[(1R)-1,2-Dimethylpropyl]amino}-1-ethyl-N-(4-fluorophenyl)-1H-pyrazolo[3,4-b]pyridine-5-carboxamide] was tested, and the “Selectivity (PDE4B/PDE5 EMR ratio, not log scale)” value [1] was 135, the IC50 [1] was 63.1 nM and the IC50 [2] was 7940 nM.

In the case of CCn1ncc2c(N[C@@H](C)C(C)C)c(C(=O)NCc3ccccc3)cnc21 [Example 38, N-Benzyl-4-{[(1S)-1,2-dimethylpropyl]amino}-1-ethyl-1H-pyrazolo[3,4-b]pyridine-5-carboxamide], the “Selectivity (PDE4B/PDE5 EMR ratio, not log scale)” value [1] is reported as 501, the IC50 [1] is reported as 20 nM and the IC50 [2] is reported as 10000 nM.

For CCn1ncc2c(N[C@@H](C)C(C)C)c(C(=O)Nc3ccc(F)cc3)cnc21 [Example 39, 4-{[(1S)-1,2-Dimethylpropyl]amino}-1-ethyl-N-(4-fluorophenyl)-1H-pyrazolo[3,4-b]pyridine-5-carboxamide], the “Selectivity (PDE4B/PDE5 EMR ratio, not log scale)” value [1] was “≧468”, the IC50 [1] was 63.1 nM and the IC50 [2] was over 30200 nM.

In the case of CCC(CC)CNC(=O)c1cnc2c(cnn2CC)c1N[C@@H](C)C(C)C [Example 51, 4-{[(1S)-1,2-Dimethylpropyl]amino}-1-ethyl-N-(2-ethylbutyl)-1H-pyrazolo[3,4-b]pyridine-5-carboxamide], the “Selectivity (PDE4B/PDE5 EMR ratio, not log scale)” value [1] is reported as 437, the IC50 [1] is reported as 7.94 nM and the IC50 [2] is reported as 3980 nM.

With CCn1ncc2c(NC(C)(C)C)c(C(=O)NCc3ccccc3)cnc21 [Example 53, 4-(tert-Butylamino)-1-ethyl-N-benzyl-1H-pyrazolo[3,4-b]pyridine-5-carboxamide] the “Selectivity (PDE4B/PDE5 EMR ratio, not log scale)” value [1] was 240, the IC50 [1] was 15.8 nM and the IC50 [2] was 3980 nM.

CCn1ncc2c(NC(C)(C)C)c(C(=O)Nc3ccc(F)cc3)cnc21 [Example 54, 4-(tert-Butylamino)-1-ethyl-N-(4-fluorophenyl)-1H-pyrazolo[3,4-b]pyridine-5-carboxamide] was tested, and the “Selectivity (PDE4B/PDE5 EMR ratio, not log scale)” value [1] was “≧309”, the IC50 [1] was 100 nM and the IC50 [2] was over 30200 nM.

Work on CC[C@@H](C)Nc1c(C(=O)NCc2ccccc2)cnc2c1cnn2CC [compound 58, reference compound] yielded an IC50 [1] of 15.8 to 63.1 nM and an IC50 [2] of 631 to 3160 nM.

Compound CC[C@H](C)Nc1c(C(=O)NCc2ccccc2)cnc2c1cnn2CC [compound 59, reference compound] has an IC50 [1] of 15.8 to 63.1 nM and an IC50 [2] of 631 to 3160 nM.

O=C(Nc1c(Cl)cncc1Cl)c1ccc(OC(F)F)c(OCC2CC2)c1 [roflumilast] was tested, and the “D50 for ferret neutrophilia (dose which gives 50% inhibition of LPS-induced pulmonary neutrophilia)” value [3] was “about 0.42 mg/kg” and the “D20 for emesis (dose that gives a 20% incidence of emesis)” value [4] was “about 0.46 mg/kg”.
